Like-named read-outs stand apart in the source and are kept apart here.
Legend:
[1] = biological target: CYP2C19 (Homo sapiens, UniProt P33261); conditions: microsomes
[2] = biological target: T1, CYP2C8 (Homo sapiens, UniProt P10632); conditions: microsomes; for CYP2C8 activity expressed as % Vehicle Control: human, 10 min, pH 7.4
T1 sequence (P10632 1-490): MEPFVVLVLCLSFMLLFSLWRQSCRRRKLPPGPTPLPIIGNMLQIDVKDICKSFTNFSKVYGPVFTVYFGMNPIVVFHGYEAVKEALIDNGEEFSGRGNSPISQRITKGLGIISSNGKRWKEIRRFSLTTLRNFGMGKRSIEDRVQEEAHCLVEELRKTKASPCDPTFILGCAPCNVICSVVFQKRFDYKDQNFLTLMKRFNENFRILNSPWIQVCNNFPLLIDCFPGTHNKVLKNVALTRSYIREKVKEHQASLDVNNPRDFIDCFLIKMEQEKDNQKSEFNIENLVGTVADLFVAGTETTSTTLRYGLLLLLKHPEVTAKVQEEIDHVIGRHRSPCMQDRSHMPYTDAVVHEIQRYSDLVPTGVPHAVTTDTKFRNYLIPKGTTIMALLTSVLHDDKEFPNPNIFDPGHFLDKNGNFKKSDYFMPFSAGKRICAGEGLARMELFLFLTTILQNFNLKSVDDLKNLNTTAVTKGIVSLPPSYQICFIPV

[3] = tested on: CYP3A4/5; conditions: microsomes
[4] = biological target: T2, CYP1A2 (Homo sapiens, UniProt P05177); conditions: microsomes; for CYP1A2 activity expressed as % Vehicle Control: human, 10 min, pH 7.4
T2 sequence (P05177 1-516): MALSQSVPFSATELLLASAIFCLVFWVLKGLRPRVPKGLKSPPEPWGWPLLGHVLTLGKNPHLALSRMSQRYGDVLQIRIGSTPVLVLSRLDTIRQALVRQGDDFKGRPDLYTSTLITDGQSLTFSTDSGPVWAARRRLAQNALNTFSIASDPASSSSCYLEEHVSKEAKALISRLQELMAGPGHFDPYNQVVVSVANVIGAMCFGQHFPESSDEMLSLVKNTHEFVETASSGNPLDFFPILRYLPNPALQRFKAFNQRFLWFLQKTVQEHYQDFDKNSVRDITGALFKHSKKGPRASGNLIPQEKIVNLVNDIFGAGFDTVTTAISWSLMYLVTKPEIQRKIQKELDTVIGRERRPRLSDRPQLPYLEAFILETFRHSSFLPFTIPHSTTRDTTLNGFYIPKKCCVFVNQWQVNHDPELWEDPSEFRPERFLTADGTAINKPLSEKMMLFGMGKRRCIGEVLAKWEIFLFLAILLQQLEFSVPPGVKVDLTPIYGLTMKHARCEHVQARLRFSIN

[5] = biological target: CYP2C9 (Homo sapiens, UniProt P11712); conditions: for CYP2C9 activity expressed as % Vehicle Control: HLM, diclofenac
[6] = in vivo, 5 mg
[7] = tested on: CYP3A4/5; conditions: microsomes; remark: listed apart in the source
[8] = biological target: T3, CYP2B6 (Homo sapiens, UniProt P20813); conditions: microsomes
T3 sequence (P20813 1-491): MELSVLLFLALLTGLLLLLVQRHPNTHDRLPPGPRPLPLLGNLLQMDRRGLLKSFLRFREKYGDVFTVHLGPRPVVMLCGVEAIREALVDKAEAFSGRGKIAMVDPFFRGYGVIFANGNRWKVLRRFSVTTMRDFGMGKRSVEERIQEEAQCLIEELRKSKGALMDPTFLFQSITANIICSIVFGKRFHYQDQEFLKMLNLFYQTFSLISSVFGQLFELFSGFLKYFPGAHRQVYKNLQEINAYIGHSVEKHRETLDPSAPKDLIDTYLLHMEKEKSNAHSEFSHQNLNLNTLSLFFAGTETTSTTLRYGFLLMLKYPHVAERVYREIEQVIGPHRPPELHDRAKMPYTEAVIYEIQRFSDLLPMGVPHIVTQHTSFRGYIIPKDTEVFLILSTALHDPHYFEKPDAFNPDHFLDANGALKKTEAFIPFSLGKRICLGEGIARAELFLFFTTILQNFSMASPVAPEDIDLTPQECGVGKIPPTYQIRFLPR

[9] = biological target: CYP2D6 (Homo sapiens, UniProt P10635); conditions: microsomes
[10] = tested on: CYP3A4/5; assay: in vitro; conditions: human, microsomes, pH 7.4
[11] = tested on: CYP3A4/5; assay: Direct CYP3A4/5 inhibition, midazolam 1′-hydroxylation in pooled human liver microsomes; conditions: pH 7.4, probe midazolam 2 μM (1′-hydroxylation)

CYP2C9, sequence (P11712 whole entry): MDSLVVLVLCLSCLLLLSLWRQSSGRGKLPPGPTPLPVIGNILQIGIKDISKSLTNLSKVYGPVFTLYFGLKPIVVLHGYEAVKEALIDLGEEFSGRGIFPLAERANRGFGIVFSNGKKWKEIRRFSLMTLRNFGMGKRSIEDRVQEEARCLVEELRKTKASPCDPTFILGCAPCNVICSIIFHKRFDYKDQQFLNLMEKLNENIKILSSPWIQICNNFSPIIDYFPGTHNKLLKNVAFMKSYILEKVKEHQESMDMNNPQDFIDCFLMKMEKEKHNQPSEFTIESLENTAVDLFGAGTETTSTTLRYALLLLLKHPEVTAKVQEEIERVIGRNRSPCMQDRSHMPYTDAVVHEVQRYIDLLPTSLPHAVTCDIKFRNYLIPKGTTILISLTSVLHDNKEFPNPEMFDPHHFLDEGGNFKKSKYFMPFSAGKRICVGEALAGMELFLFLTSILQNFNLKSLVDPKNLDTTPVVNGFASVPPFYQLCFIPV
CYP2C19, sequence (P33261 whole entry): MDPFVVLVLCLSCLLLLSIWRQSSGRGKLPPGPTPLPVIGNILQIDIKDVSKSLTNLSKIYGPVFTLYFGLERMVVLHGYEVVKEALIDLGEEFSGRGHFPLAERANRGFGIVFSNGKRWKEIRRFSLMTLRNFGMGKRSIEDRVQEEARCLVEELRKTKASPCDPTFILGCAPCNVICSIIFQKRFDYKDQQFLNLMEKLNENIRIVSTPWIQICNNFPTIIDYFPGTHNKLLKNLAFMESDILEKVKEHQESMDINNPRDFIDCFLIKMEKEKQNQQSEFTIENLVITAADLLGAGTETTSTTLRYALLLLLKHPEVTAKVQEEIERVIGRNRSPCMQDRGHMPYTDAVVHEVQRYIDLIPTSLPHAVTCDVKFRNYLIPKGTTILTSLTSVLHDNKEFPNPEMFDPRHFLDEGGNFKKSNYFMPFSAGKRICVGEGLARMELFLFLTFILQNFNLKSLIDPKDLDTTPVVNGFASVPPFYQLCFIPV
CYP2D6, sequence (P10635 whole entry): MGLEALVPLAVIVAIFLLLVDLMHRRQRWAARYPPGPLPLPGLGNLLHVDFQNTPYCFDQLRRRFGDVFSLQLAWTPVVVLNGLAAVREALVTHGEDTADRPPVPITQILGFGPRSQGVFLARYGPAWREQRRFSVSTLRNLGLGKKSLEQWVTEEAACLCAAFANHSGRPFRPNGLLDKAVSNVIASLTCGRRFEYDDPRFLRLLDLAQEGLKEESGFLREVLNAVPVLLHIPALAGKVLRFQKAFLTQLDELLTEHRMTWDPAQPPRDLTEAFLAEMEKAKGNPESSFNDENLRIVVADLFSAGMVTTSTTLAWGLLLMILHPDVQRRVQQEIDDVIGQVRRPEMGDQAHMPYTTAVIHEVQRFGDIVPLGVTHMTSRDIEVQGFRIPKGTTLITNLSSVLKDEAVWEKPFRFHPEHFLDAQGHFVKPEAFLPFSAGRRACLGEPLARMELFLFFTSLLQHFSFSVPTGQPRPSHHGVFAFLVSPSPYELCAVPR

Molecule: phenylcapsaicyn
- IC50 [1]: > 50000 nM
- Inhibition of CYP2C19 in words [1]: no significant inhibition
- IC50 [2]: > 50000 nM
- Inhibition of CYP2C8 in words [2]: no significant inhibition
- IC50 [3]: > 50000 nM
- Inhibition of CYP3A4/5 in words (testosterone) [3]: no significant inhibition
- Ki [4]: 340 nM
- IC50 ([5]; microsomes): > 50000 nM
- Inhibition of CYP2C9 in words ([5]; microsomes): no significant inhibition
- Cmax [6]: ~600 nM
- IC50 [7]: > 50000 nM
- Inhibition of CYP3A4/5 in words (midazolam) [7]: no significant inhibition
- IC50 [8]: > 50000 nM
- Inhibition of CYP2B6 in words [8]: no significant inhibition
- Ki [9]: 550 nM

Molecule: CCC(C)n1ncn(-c2ccc(N3CCN(c4ccc(OCC5COC(Cn6cncn6)(c6ccc(Cl)cc6Cl)O5)cc4)CC3)cc2)c1=O (stereo not drawn) [Itraconazole]
- IC50 [10]: 30 nM
- IC50 at 5 min [11]: 210 nM

Molecule: N[C@@H]1C[C@H]1c1ccccc1 (racemic) [Tranylcypromine, reference compound]
- IC50 [8]: 3400 nM

Molecule: Nc1ccc(S(=O)(=O)Nc2ccnn2-c2ccccc2)cc1 [Sulfaphenazole, reference compound]
- CYP2C9 activity expressed as % Vehicle Control ([5]; positive control 0.0025 μM): 102.1 % Vehicle Control
- CYP2C9 activity expressed as % Vehicle Control ([5]; positive control 0.025 μM): 95.7 % Vehicle Control
- CYP2C9 activity expressed as % Vehicle Control ([5]; positive control 0.25 μM): 47.2 % Vehicle Control
- CYP2C9 activity expressed as % Vehicle Control ([5]; positive control 2.5 μM): 10.1 % Vehicle Control
- CYP2C9 activity expressed as % Vehicle Control ([5]; positive control 25 μM): 1.9 % Vehicle Control

Molecule: Cc1nc2c([nH]1)c(=O)n(C)c(=O)n2Cc1ccco1 [Furafylline]
- CYP1A2 activity expressed as % Vehicle Control ([4]; 0.01 μM): 103.9 % Vehicle Control
- CYP1A2 activity expressed as % Vehicle Control ([4]; 0.1 μM): 110.2 % Vehicle Control
- CYP1A2 activity expressed as % Vehicle Control ([4]; 1 μM): 88.5 % Vehicle Control
- CYP1A2 activity expressed as % Vehicle Control ([4]; 10 μM): 41.0 % Vehicle Control
- CYP1A2 activity expressed as % Vehicle Control ([4]; 100 μM): 10.1 % Vehicle Control

Molecule: CC(C)(O)c1ccccc1CC[C@@H](SCC1(CC(=O)O)CC1)c1cccc(/C=C/c2ccc3ccc(Cl)cc3n2)c1 [Montelukast, reference compound]
- CYP2C8 activity expressed as % Vehicle Control ([2]; 0.001 μM): 96.0 % Vehicle Control
- CYP2C8 activity expressed as % Vehicle Control ([2]; 0.01 μM): 91.3 % Vehicle Control
- CYP2C8 activity expressed as % Vehicle Control ([2]; 0.1 μM): 66.2 % Vehicle Control
- CYP2C8 activity expressed as % Vehicle Control ([2]; 1 μM): 13.3 % Vehicle Control
- CYP2C8 activity expressed as % Vehicle Control ([2]; 10 μM): 1.3 % Vehicle Control

Source: US20260256919A1, “BIOENHANCERS” (priority 2022, published 2026)
